This note sets out measurements from patent publication US20220144847A1, “HETEROCYCLIC COMPOUND, PHARMACEUTICAL COMPOSITION COMPRISING SAME, PREPARATION METHOD THEREFOR, AND USE THEREOF” (Sichuan Kelun-Biotech Biopharmaceutical Co., Ltd., priority 2019, published 2022).

In one assay the target is RET-V804M (Homo sapiens, UniProt P07949, V804M). The assay can be described thus: RET inhibition experiment (HTRF KinEASE-TK kit), mutant RET-V804M. It counts as biochemical. To be noted: read-out: The IC50 (nM) for inhibiting V804M. The method in brief: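 Enzyme was pre-incubated with compound at room temperature for 30 min, then substrate and ATP were added for a 40 min reaction. HTRF signal was read after 45 min with TK antibody-cryptate and streptavidin-XL665. IC50 came from a four-parameter fit of percent inhibition against DMSO and no-enzyme controls.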

The next assay concerns the target T1, RET-CCDC6 (Homo sapiens, UniProt P07949).
T1 construct: CCDC6 fusion partner (Q16204 for human); the other entry of the earlier key: CCDC6 (Q16204, Coiled-coil domain-containing protein 6)
T1 sequence (P07949 with tags, fused parts or gaps): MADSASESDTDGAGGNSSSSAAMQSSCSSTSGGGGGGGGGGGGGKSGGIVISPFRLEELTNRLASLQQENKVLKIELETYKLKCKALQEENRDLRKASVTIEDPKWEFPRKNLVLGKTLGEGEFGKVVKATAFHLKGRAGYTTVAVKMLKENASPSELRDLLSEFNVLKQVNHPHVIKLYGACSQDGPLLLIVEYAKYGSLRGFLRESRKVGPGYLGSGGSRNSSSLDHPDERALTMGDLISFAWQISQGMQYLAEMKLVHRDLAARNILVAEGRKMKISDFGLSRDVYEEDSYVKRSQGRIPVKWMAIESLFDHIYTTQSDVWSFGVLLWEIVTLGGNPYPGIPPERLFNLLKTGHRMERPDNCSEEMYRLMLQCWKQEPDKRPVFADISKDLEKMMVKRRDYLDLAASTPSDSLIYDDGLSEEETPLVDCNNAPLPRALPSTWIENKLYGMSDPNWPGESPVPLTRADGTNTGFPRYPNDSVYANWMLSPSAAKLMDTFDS
As to the kind of experiment: RET inhibition experiment (HTRF KinEASE-TK kit), fusion-type RET enzyme. To be noted: read-out: The IC50 (nM) for inhibiting RET-CCDC6. It counts as biochemical. As to the method:
Experimental method: […] After incubation at room temperature for 40 min, TK antibody-cryptate and streptavidin-XL665 were added, and the test was performed after incubation at room temperature for 45 min. With the solvent group (DMSO) as the negative control and the buffer group (without RET enzyme) as the blank control, the relative inhibitory activity percentages (i.e., inhibition rates) of different concentrations of the compounds were computed as per the following formula: […] The relative inhibitory activity percentages of different concentrations of the compounds were plotted with respect to the compound concentrations, and the curve was fitted according to a four-parameter model to compute the IC50 value as per the following formula: y=min+(max-min)/(1+(x/IC50)^(-Hillslope)) where y is the relative inhibitory activity percentage, max is the maximum value of the fitted curve, min is the minimum value of the fitted curve, x is the logarithmic concentration of the compound, and Hillslope is the slope of the curve.
(In general: In TR-FRET formats the signal depends on donor and acceptor labels being close together.)

Chain of RET-V804M (P07949 29-1114 V804M): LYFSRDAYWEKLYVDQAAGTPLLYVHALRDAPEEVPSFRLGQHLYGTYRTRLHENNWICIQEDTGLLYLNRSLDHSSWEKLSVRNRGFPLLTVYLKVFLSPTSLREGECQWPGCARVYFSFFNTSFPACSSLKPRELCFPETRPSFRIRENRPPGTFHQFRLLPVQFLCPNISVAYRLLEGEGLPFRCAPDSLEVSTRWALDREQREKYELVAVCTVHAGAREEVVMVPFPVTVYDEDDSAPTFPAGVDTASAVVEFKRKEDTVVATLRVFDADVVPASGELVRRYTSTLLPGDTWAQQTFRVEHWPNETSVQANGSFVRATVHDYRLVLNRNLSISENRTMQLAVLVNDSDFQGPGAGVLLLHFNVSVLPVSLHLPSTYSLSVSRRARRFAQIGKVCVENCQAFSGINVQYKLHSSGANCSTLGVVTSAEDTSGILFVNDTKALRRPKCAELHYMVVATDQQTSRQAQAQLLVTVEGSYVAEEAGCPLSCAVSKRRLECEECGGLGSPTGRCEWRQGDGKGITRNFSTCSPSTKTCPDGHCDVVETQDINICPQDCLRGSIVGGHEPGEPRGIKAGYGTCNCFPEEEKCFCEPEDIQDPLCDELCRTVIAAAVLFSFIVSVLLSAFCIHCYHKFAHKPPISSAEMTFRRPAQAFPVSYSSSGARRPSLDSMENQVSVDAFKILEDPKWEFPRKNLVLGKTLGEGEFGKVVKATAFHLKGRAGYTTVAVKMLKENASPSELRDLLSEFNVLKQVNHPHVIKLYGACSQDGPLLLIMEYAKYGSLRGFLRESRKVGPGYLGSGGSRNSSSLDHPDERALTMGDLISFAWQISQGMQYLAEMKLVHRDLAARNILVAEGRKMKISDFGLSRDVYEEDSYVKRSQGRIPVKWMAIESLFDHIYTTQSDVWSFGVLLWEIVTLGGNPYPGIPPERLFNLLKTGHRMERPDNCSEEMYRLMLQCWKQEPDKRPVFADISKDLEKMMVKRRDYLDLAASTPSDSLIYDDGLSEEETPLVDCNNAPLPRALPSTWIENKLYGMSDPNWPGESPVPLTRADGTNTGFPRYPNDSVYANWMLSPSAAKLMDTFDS

By IC50 is commonly meant the midpoint of a concentration-inhibition curve. Turning to `Cc1cc(Nc2cc(C)[nH]n2)nc(-c2ccc(N3CC4CC(C3)N4Cc3ccc(-n4cc(F)cn4)nc3)nc2)n1` [Compound 17, 2-(6-(6-((6-(4-fluoro-1H-pyrazol-1-yl)pyridin-3-yl)methyl)-3,6-diazabicyclo[3.1.1]heptan-3-yl)pyridin-3-yl)-6-methyl-N-(5-methyl-1H-pyrazol-3-yl)pyrimidin-4-amine], the IC50 at RET-V804M was determined as 1.03 ± 0.47 nM; at RET-CCDC6 it was 2.5 ± 0.55 nM.
